This is an account of results in PMC2829425 (Protein expression and purification, 2010).

The target in data set [1] is T1, zebrafish monoamine oxidase (zMAO) (Danio rerio, UniProt Q6NSN2).
T1 sequence (Q6NSN2 1-522): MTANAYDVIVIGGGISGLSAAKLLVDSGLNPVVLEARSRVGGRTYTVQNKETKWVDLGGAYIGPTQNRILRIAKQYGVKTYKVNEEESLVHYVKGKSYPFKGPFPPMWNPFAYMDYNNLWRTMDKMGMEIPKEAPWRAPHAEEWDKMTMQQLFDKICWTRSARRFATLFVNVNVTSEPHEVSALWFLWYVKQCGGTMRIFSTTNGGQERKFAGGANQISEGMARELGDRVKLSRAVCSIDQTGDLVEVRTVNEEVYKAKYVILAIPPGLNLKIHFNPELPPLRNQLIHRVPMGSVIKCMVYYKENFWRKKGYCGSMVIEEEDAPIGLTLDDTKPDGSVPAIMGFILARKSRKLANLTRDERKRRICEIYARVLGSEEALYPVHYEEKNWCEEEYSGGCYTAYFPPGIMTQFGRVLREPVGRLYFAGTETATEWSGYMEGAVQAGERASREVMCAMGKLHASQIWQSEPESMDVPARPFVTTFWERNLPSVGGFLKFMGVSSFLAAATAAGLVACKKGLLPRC
Put plainly: steady-state kinetics, benzaldehyde formation at […] nm. Type of data set: biochemical. Conditions: read-out: Benzylamine.

Data set [2] concerns the target T1, zebrafish monoamine oxidase (zMAO). Put plainly: irreversible inhibition of purified enzyme. Type of data set: biochemical.
For data set [3] the target is unchanged. Put plainly: specific activity of purified enzyme, 4-hydroxyquinoline formation at […] nm. The class given is biochemical.
Substrate in data set [4]: NCCc1ccccc1
Put plainly: steady-state kinetics, Amplex red/peroxidase-coupled assay. The class given is biochemical, Danio rerio. The conditions noted are these: covalent FAD ([…]α-S-cysteinylFAD); pH 7.4; 25.0 °C.

`NCc1ccccc1` [Benzylamine]: the Km in data set [1] was found to be 82.2 ± 9 µM.

The molecule `C#CCN(C)CCCOc1ccc(Cl)cc1Cl` [Clorgyline] displayed an IC50 in data set [2] of 64 µM.

In data set [2], `C#CCN(C)C(C)Cc1ccccc1` (stereo not shown) [Deprenyl] showed an IC50 of 6.5 µM.

For `NCCC(=O)c1ccccc1N` [Kynuramine], the “specific activity of purified enzyme, 4-hydroxyquinoline formation at 316 nm” value in data set [3] is 1.5 U/mg.

B1: zebrafish monoamine oxidase (zMAO) (Danio rerio) (protein)
chain: MTANAYDVIVIGGGISGLSAAKLLVDSGLNPVVLEARSRVGGRTYTVQNKETKWVDLGGAYIGPTQNRILRIAKQYGVKTYKVNEEESLVHYVKGKSYPFKGPFPPMWNPFAYMDYNNLWRTMDKMGMEIPKEAPWRAPHAEEWDKMTMQQLFDKICWTRSARRFATLFVNVNVTSEPHEVSALWFLWYVKQCGGTMRIFSTTNGGQERKFAGGANQISEGMARELGDRVKLSRAVCSIDQTGDLVEVRTVNEEVYKAKYVILAIPPGLNLKIHFNPELPPLRNQLIHRVPMGSVIKCMVYYKENFWRKKGYCGSMVIEEEDAPIGLTLDDTKPDGSVPAIMGFILARKSRKLANLTRDERKRRICEIYARVLGSEEALYPVHYEEKNWCEEEYSGGCYTAYFPPGIMTQFGRVLREPVGRLYFAGTETATEWSGYMEGAVQAGERASREVMCAMGKLHASQIWQSEPESMDVPARPFVTTFWERNLPSVGGFLKFMGVSSFLAAATAAGLVACKKGLLPRC
Take B1: in data set [4], the Km came out at 86 ± 13 µM, the kcat is 3.4 ± 0.145 s⁻¹ and the kcat/Km amounted to 39500 ± 3170 M⁻¹ s⁻¹.

Broadly, the IC50 is the concentration that inhibits the measured activity by half. A word on the kcat: it is the maximal rate divided by the concentration of active sites. What is called kcat/Km is the second-order rate constant that governs catalysis at low substrate concentration.
